Results taken from patent publication US6669951B2, “Compositions and methods for enhancing drug delivery across and into epithelial tissues” (CellGate, Inc., priority 1999, dated 2003).
Like-named read-outs stand apart in the source and are kept apart here. Square brackets hold non-standard residues; d marks the D form. Peptide text beside a SMILES is read from it. * marks the point of attachment. FITC = O=C1OC2(c3ccc(O)cc3Oc3cc(O)ccc32)c2ccc(NC(=S)*)cc21; Ahx = NCCCCCC(=O)O

Assays:
[1] = test system: skin of nude mice; assay: Penetration of biotinylated conjugates into skin of nude mice (streptavidin staining); conditions: for penetration of drug conjugates into skin: 1 mM-100 μM in PBS, nude mice, thirty, sixty, 120 minutes; for penetration into skin (streptavidin staining): mouse, in vivo
Method: Samples (100 μl) were applied as a liquid without excipient, prevented from dispersing by a Vaseline™ barrier, and allowed to penetrate for fifteen minutes. At the end of this period the animal was sacrificed, the relevant sections of skin were excised, embedded in mounting medium (OCT), and frozen. Frozen sections (5 microns) were cut using a cryostat, collected on slides, and stained with fluorescently labeled streptavidin (Vector Laboratories, Burlingame, Calif.). The slides were fixed in acetone at 4° C. for ten minutes, air dried, soaked in PBS for five minutes, blocked with normal goat serum for five minutes, and washed with PBS for five minutes. The section was stained by incubation with fluorescently labeled streptavidin at 30 μg/ml for thirty minutes, washed with PBS, counterstained with propidium iodide (1 μg/ml) for two minutes, and the section was mounted with Vectashield™ mounting media. Slides were analyzed by fluorescent microscopy. Parallel studies were done using streptavidin-horse radish peroxidase rather than fluorescein-streptavidin. The biotinylated peptide was visualized by treatment of the sections with the horseradish peroxidase substrate diaminobenzadine, and visualization with light microscopy.
Alternatively, sample (100 μl) was applied as a liquid without excipient and prevented from evaporating by wrapping plastic wrap over the sample sealed with Vaseline™. […] At the end of this period animal was sacrificed, the relevant section of skin was excised, embedded in mounting medium (OCT) and frozen. […] Slides were analyzed by fluorescent microscopy.
At the end of this period animal was sacrificed, the relevant section of skin was excised, embedded in mounting medium (OCT) and frozen. […] Slides were analyzed by fluorescent microscopy
(§1) At the end of this period animal was sacrificed, the relevant section of skin was excised, embedded in mounting medium (OCT) and frozen. […] Slides were analyzed by fluorescent microscopy.
as §1

[2] = test system: human skin grafts on SCID mice; conditions: in vivo
Method: Samples (100 μl) were applied as a liquid within excipient and prevented from dispersing by a Vaseline™ barrier and allowed to penetrate for fifteen minutes. At the end of this period animal was sacrificed, the relevant section of skin was excised, embedded in mounting medium (OCT) and frozen. […] Slides were analyzed by fluorescent microscopy.

[3] = test system: skin of Balb/C mice; conditions: mouse, in vivo
Method: Slides were analyzed by fluorescent microscopy.

[4] = Half-life / release of conjugate in buffer; format: physicochemical
[5] = test system: Caco-2 cells; assay: Cellular uptake in Caco-2 cells; format: cell-based, human; conditions: five minutes; for uptake into Caco-2 cells in suspension (flow cytometry): 50-0.8 μM
Method: To analyze the penetration of fluorescent oligomers of D-arginine into the cells when in suspension, the monolayers were treated with trypsin (4.5 ml of a 0.05% solution Gibco, Grand Rapids, Mich.) and the individual cell suspension was spun down.
To analyze the ability of the fluorescent peptides to enter Caco-2 cells when part of a monolayer, the cells were seeded in lab-tek flaskette microscope slides (Nalge Nunc Int., Naperville, Ill.) in 4 ml at a density of 60,000 cells/ml and grown for 21 days with the media being changed every other day. […] The monolayer was subsequently washed with PBS/2% FBS twice to remove labeled peptide and analyzed using fluorescent microscopy.
Varying concentrations of the taxol conjugates (50-0.08 μM) were added to the apical side and exposed to the monolayer of Caco-2 cells for three minutes. The membrane was removed from the apparatus, the cells trypsinized, and the resulting cell suspension was analyzed by flow cytometry (FIG. 33).

[6] = test system: Jurkat cells; assay: FACS cellular uptake assay; format: cell-based, human; conditions: 4 min, 23° C.
Method: (§2) The accuracy of this method for determining concentration was established by weighing selected samples and dissolving them in a known amount of PBS buffer. The concentrations determined by UV spectroscopy correlated with the amounts weighed out manually. Jurkat cells (human T cell line), murine B cells (CH27), or human PBL cells were grown in 10% fetal calf serum and DMEM and each of these were used for cellular uptake experiments. […] The microtiter plates were centrifuged and the cells were isolated, washed with cold PBS (3×250 μL), incubated with 0.05% trypsin/0.53 mM EDTA at 37° C. for 5 min, washed with cold PBS, and resuspended in PBS containing 0.1% propidium iodide. The cells were analyzed using fluorescent flow cytometry (FACScan, Becton Dickinson) and cells staining with propidium iodide were excluded from the analysis. The data presented is the mean fluorescent signal for the 5000 cells collected.
Inhibition of Cellular Uptake with Sodium Azide. The assays were performed as previously described with the exception that the cells used were preincubated for 30 min with 0.5% sodium azide in 2% FCS/PBS buffer prior to the addition of fluorescent peptides and the cells were washed with 0.5% sodium azide in PBS buffer. All of the cellular uptake assays were run in parallel in the presence and absence of sodium azide.
To determine the structural requirements for the cellular uptake of short arginine-rich peptides, a series of fluorescently-labeled truncated analogues of Tat49-57 were synthesized using standard solid-phase chemistry. See, e.g., Atherton, E. et al. SOLID-PHASE PEPTIDE […] (IRL: Oxford, Engl. 1989). A fluorescein moiety was attached via an aminohexanoic acid spacer on the amino termini. The ability of these fluorescently labeled peptides to enter Jurkat cells was then analyzed using fluorescent activated cell sorting (FACS). The peptide constructs tested were Tat49-57 (Fl-ahx-[…]; SEQ ID NO:8): Tat49-56 (Fl-ahx-[…]; SEQ ID NO:9), Tat49-55 (Fl-ahx-RKKRRQR; SEQ ID NO: 10), Tat50-57 (Fl-ahx-[…]; SEQ ID NO: 11), and Tat51-57 (Fl-ahx-KRRQRRR; SEQ ID NO: 12). Differentiation between cell surface binding and internalization was accomplished throughout by running a parallel set of assays in the presence and absence of sodium azide. Because sodium azide inhibits energy-dependent cellular uptake but not cell surface binding, the difference in fluorescence between the two assays provided the amount of fluorescence resulting from internalization.

[7] = test system: Jurkat cells; assay: Cellular uptake kinetics assay (Michaelis-Menton); format: cell-based, human; set-up: Vmax: unit not given here
Method: as §2
Cellular Uptake Kinetics Assay. The assays were performed as previously described except the cells were incubated for 0.5, 1, 2, and 4 min at 4° C. in triplicate in 2% FCS/PBS (50 μl) in microtiter plates (96 well). The reactions were quenched by diluting the samples into 2% FCS/PBS (5 mL). The assays were then worked up and analyzed by fluorescent flow cytometry as previously described.
The rates of cellular uptake were determined after incubation (3° C.) of the peptides in Jurkat cells for 30, 60, 120, and 240 seconds (Table 1).

[8] = Jurkat cells, incubation 30, 60, 120, 240 seconds, 3° C.

SMILES: CC(=O)O[C@H]1C(=O)[C@@]2(C)[C@H]([C@H](OC(=O)c3ccccc3)[C@]3(O)C[C@H](OC(=O)[C@H](OC(=O)NCCCC[C@H](NC(=O)[C@@H](CCCNC(=N)N)NC(=O)[C@@H](CCCNC(=N)N)NC(=O)[C@@H](CCCNC(=N)N)NC(=O)[C@@H](CCCNC(=N)N)NC(=O)[C@@H](CCCNC(=N)N)NC(=O)[C@@H](CCCNC(=N)N)NC(=O)[C@@H](CCCNC(=N)N)NC(=O)CCCCCNC(=O)CCCC[C@@H]4SC[C@@H]5NC(=O)N[C@@H]54)C(N)=O)[C@@H](NC(=O)c4ccccc4)c4ccccc4)C(C)=C1C3(C)C)[C@]1(OC(C)=O)CO[C@@H]1C[C@@H]2O [B-aca-r7-K-taxol]
- penetration of drug conjugates into skin [1]: effectively entered into and across the epidermis and into the dermis of the skin of nude mice

SMILES: CC(=O)O[C@H]1C(=O)[C@@]2(C)[C@H]([C@H](OC(=O)c3ccccc3)[C@]3(O)C[C@H](OC(=O)[C@H](OC(=O)NCCCC[C@H](NC(=O)[C@@H](CCCNC(=N)N)NC(=O)[C@@H](CCCNC(=N)N)NC(=O)[C@@H](CCCNC(=N)N)NC(=O)[C@@H](CCCNC(=N)N)NC(=O)[C@@H](CCCNC(=N)N)NC(=O)[C@@H](CCCNC(=N)N)NC(=O)[C@@H](CCCNC(=N)N)NC(=O)[C@@H](CCCNC(=N)N)NC(=O)[C@@H](CCCNC(=N)N)NC(=O)CCCCCNC(=O)CCCC[C@@H]4SC[C@@H]5NC(=O)N[C@@H]54)C(N)=O)[C@@H](NC(=O)c4ccccc4)c4ccccc4)C(C)=C1C3(C)C)[C@]1(OC(C)=O)CO[C@@H]1C[C@@H]2O [B-aca-r9-K-taxol]
- penetration of drug conjugates into skin [1]: effectively entered into and across the epidermis and into the dermis of the skin of nude mice

SMILES: N=C(N)NCCC[C@@H](NC(=O)[C@@H](CCCNC(=N)N)NC(=O)[C@@H](CCCNC(=N)N)NC(=O)[C@@H](CCCNC(=N)N)NC(=O)[C@@H](CCCNC(=N)N)NC(=O)[C@@H](CCCNC(=N)N)NC(=O)[C@@H](CCCNC(=N)N)NC(=O)CCCCCNC(=O)CCCC[C@@H]1SC[C@@H]2NC(=O)N[C@@H]21)C(N)=O [Biotinylated arginine heptamer]
- penetration into skin (streptavidin staining) [1]: crossed into and across the epidermis and into the dermis
- penetration into human skin [2]: crossed into and across the epidermis and into the dermis of the human skin
- penetration into skin [3]: crossed into and across the epidermis and into the dermis

SMILES: C/C=C/C[C@@H](C)[C@@H](OC(=O)CN(Cc1ccccc1)C(=O)CNCC(=O)N[C@H](CCCNC(=N)N)C(=O)N[C@H](CCCNC(=N)N)C(=O)N[C@H](CCCNC(=N)N)C(=O)N[C@H](CCCNC(=N)N)C(=O)N[C@H](CCCNC(=N)N)C(=O)N[C@H](CCCNC(=N)N)C(=O)N[C@H](CCCNC(=N)N)C(=O)O)[C@H]1C(=O)N[C@@H](CC)C(=O)N(C)CC(=O)N(C)[C@@H](CC(C)C)C(=O)N[C@@H](C(C)C)C(=O)N(C)[C@@H](CC(C)C)C(=O)N[C@@H](C)C(=O)N[C@H](C)C(=O)N(C)[C@@H](CC(C)C)C(=O)N(C)[C@@H](CC(C)C)C(=O)N(C)[C@@H](C(C)C)C(=O)N1C [CGC1072]
- half-life ([4]; PBS pH 7.4 (37° C. where stated)): approximately ninety
- half-life ([4]; buffer, PBS, pH 7.4 at 37° C., read-out: half life (converted)): 1.5 h

SMILES: NCCCC[C@@H](NC(=O)[C@@H](CCCCN)NC(=O)[C@@H](CCCCN)NC(=O)[C@@H](CCCCN)NC(=O)[C@@H](CCCCN)NC(=O)[C@@H](CCCCN)NC(=O)[C@@H](CCCCN)NC(=O)CCCCCNC(=S)Nc1ccc2c(c1)C(=O)OC21c2ccc(O)cc2Oc2cc(O)ccc21)C(N)=O [Fl aca k7, reference compound] ({FITC-Ahx}-[dK][dK][dK][dK][dK][dK][dK]-NH2)
- uptake into Caco-2 cells in suspension (flow cytometry) [5]: All the polymers of arginine entered cells more effectively than the nonamers of lysine

SMILES: N=C(N)NCCC[C@H](NC(=O)[C@H](CCCNC(=N)N)NC(=O)[C@H](CCCNC(=N)N)NC(=O)[C@H](CCCNC(=N)N)NC(=O)[C@H](CCCNC(=N)N)NC(=O)CCCCCNC(=S)Nc1ccc2c(c1)C(=O)OC21c2ccc(O)cc2Oc2cc(O)ccc21)C(N)=O [R5, F1-ahx-RRRRR] ({FITC-Ahx}-RRRRR-NH2)
- uptake into Caco-2 cells in suspension (flow cytometry) [5]: r9 being more effective than r7, which was more effective than r5

SMILES: N=C(N)NCCC[C@H](NC(=O)[C@H](CCCNC(=N)N)NC(=O)[C@H](CCCNC(=N)N)NC(=O)[C@H](CCCNC(=N)N)NC(=O)[C@H](CCCNC(=N)N)NC(=O)[C@H](CCCNC(=N)N)NC(=O)[C@H](CCCNC(=N)N)NC(=O)CCCCCNC(=S)Nc1ccc2c(c1)C(=O)OC21c2ccc(O)cc2Oc2cc(O)ccc21)C(N)=O [R7, F1-ahx-RRRRRRR]
- uptake into Caco-2 cells in suspension (flow cytometry) [5]: r9 being more effective than r7, which was more effective than r5

SMILES: O=C(O)CCCC[C@@H]1SC[C@@H]2NC(=O)N[C@@H]21 [biotin, reference compound]
- penetration into skin (streptavidin staining) [1]: no staining was apparent
- penetration into human skin [2]: no staining was apparent
- penetration into skin [3]: no staining was apparent

SMILES: N=C(N)NCCC[C@@H](NC(=O)[C@@H](CCCNC(=N)N)NC(=O)[C@@H](CCCNC(=N)N)NC(=O)[C@@H](CCCNC(=N)N)NC(=O)[C@@H](CCCNC(=N)N)NC(=O)[C@@H](CCCNC(=N)N)NC(=O)[C@@H](CCCNC(=N)N)NC(=O)[C@@H](CCCNC(=N)N)NC(=O)[C@@H](CCCNC(=N)N)NC(=O)CCCCCNC(=S)Nc1ccc2c(c1)C(=O)OC21c2ccc(O)cc2Oc2cc(O)ccc21)C(N)=O [r9]
- uptake into Caco-2 monolayer on microscope slide ([5]; 50 μM, fluorescent microscopy): virtually every cell in the monolayer was fluorescent after five minutes
- uptake into Caco-2 cells in suspension (flow cytometry) [5]: r9 being more effective than r7, which was more effective than r5
- cellular uptake compared with d-arginine oligomers / other peptoids [6]: comparable to N-btg9
- relative order of cellular uptake ([6]; peptoids and d-arginine oligomers): N-hxg9 (6 methylene)>N-btg9 (4 methylene)>r9 (3 methylene)>N-arg9 (3 methylene)>N-etg9 (2 methylene)
- Km values fold greater / fold better than Tat49-57 ([7]; Discussion): 100 fold
- Km [7, 8]: 7.6 µM
- Vmax [7, 8]: 0.38
- rate of entering cells, fold faster than Tat47-59 ([7]; from Km values, Jurkat cells): approximately 100 fold
